In the supplement of paper PMC10307832:

What was measured:
Experiment in all cases: relative viability (nuclei count vs DMSO), 5 days (fraction); higher = more cells survive
A549 = tested on: A549
How it was run: (§1)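 Relative viability equals treated-well nuclei counts divided by vehicle-well nuclei counts. Counts came from 4× images of lung cancer cell lines grown in 1536-well plates for 5 days after pin-tool dosing on the day after seeding. Dosing used one drug alone or a fixed anchor-drug dose plus five library-drug doses (not always all listed) in √10 steps, and values are medians of duplicate plates.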

Calu-6 = tested on: Calu-6
How it was run: as §1

EBC-1 = tested on: EBC-1
How it was run: as §1

IA-LM = tested on: IA-LM
How it was run: as §1

LCLC-97TM1 = tested on: LCLC-97TM1
How it was run: as §1

NCI-H1299 = tested on: NCI-H1299
How it was run: as §1

NCI-H1355 = tested on: NCI-H1355
How it was run: as §1

NCI-H1437 = tested on: NCI-H1437
How it was run: as §1

NCI-H1703 = tested on: NCI-H1703
How it was run: as §1

NCI-H596 = tested on: NCI-H596
How it was run: as §1

Question: Which results are given for `Cc1cn(-c2cc(NC(=O)c3ccc(C)c(Nc4nccc(-c5cccnc5)n4)c3)cc(C(F)(F)F)c2)cn1` [Nilotinib] + C[C@]1(O)C[C@@H](c2nc(-c3ccc4ccc(-c5ccccc5)nc4c3)c3c(N)nccn32)C1 [Linsitinib] (partner 1 µM)?
Answer: relative viability (A549; first compound 0.001 µM): 0.778; relative viability (A549; first compound 0.003162 µM): 0.582; relative viability (A549; first compound 0.01 µM): 0.767; relative viability (A549; first compound 0.03162 µM): 0.535; relative viability (A549; first compound 0.1 µM): 0.286; relative viability (Calu-6; first compound 0.001 µM): 0.819; relative viability (Calu-6; first compound 0.003162 µM): 1.06; relative viability (Calu-6; first compound 0.01 µM): 1.06; relative viability (Calu-6; first compound 0.03162 µM): 0.809; relative viability (Calu-6; first compound 0.1 µM): 0.828; relative viability (EBC-1; first compound 0.001 µM): 0.81; relative viability (EBC-1; first compound 0.003162 µM): 0.794; relative viability (EBC-1; first compound 0.01 µM): 1.14; relative viability (EBC-1; first compound 0.03162 µM): 0.791; relative viability (EBC-1; first compound 0.1 µM): 0.66; relative viability (IA-LM; first compound 0.001 µM): 0.382; relative viability (IA-LM; first compound 0.003162 µM): 0.31; relative viability (IA-LM; first compound 0.01 µM): 0.634; relative viability (IA-LM; first compound 0.03162 µM): 0.346; relative viability (IA-LM; first compound 0.1 µM): 0.216; relative viability (LCLC-97TM1; first compound 0.001 µM): 0.198; relative viability (LCLC-97TM1; first compound 0.003162 µM): 0.228; relative viability (LCLC-97TM1; first compound 0.01 µM): 0.276; relative viability (LCLC-97TM1; first compound 0.03162 µM): 0.245; relative viability (LCLC-97TM1; first compound 0.1 µM): 0.247; relative viability (NCI-H1299; first compound 0.001 µM): 0.91; relative viability (NCI-H1299; first compound 0.003162 µM): 1.1; relative viability (NCI-H1299; first compound 0.01 µM): 1.28; relative viability (NCI-H1299; first compound 0.03162 µM): 0.957; relative viability (NCI-H1299; first compound 0.1 µM): 0.762; relative viability (NCI-H1355; first compound 0.001 µM): 0.815; relative viability (NCI-H1355; first compound 0.003162 µM): 1.11; relative viability (NCI-H1355; first compound 0.01 µM): 1.16; relative viability (NCI-H1355; first compound 0.03162 µM): 0.836; relative viability (NCI-H1355; first compound 0.1 µM): 0.934; relative viability (NCI-H1437; first compound 0.001 µM): 0.879; relative viability (NCI-H1437; first compound 0.003162 µM): 1.19; relative viability (NCI-H1437; first compound 0.01 µM): 1.24; relative viability (NCI-H1437; first compound 0.03162 µM): 0.747; relative viability (NCI-H1437; first compound 0.1 µM): 0.755; relative viability (NCI-H1703; first compound 0.001 µM): 0.637; relative viability (NCI-H1703; first compound 0.003162 µM): 0.285; relative viability (NCI-H1703; first compound 0.01 µM): 0.343; relative viability (NCI-H1703; first compound 0.03162 µM): 0.218; relative viability (NCI-H1703; first compound 0.1 µM): 0.136; relative viability (NCI-H596; first compound 0.003162 µM): 1.26; relative viability (NCI-H596; first compound 0.01 µM): 1.28; relative viability (NCI-H596; first compound 0.03162 µM): 0.812

Question: For `CN1CCN(CCOc2cc(OC3CCOCC3)c3c(Nc4c(Cl)ccc5c4OCO5)ncnc3c2)CC1` [Saracatinib] + CS(=O)(=O)CCNCc1ccc(-c2ccc3ncnc(Nc4ccc(OCc5cccc(F)c5)c(Cl)c4)c3c2)o1 [Lapatinib] (partner 2 µM), which relative viability (A549; first compound 0.02 µM) is on record?
Answer: 1.06

Question: And the relative viability (A549; first compound 0.2 µM)?
Answer: 1.01

Question: What about the relative viability (A549; first compound 0.6325 µM) of the same molecule?
Answer: 0.812

Question: And the relative viability (A549; first compound 2 µM)?
Answer: 0.791

Question: What about the relative viability (Calu-6; first compound 0.02 µM) of the same molecule?
Answer: 1.08

Question: And the relative viability (Calu-6; first compound 0.2 µM)?
Answer: 0.839

Question: And the relative viability (Calu-6; first compound 0.6325 µM)?
Answer: 0.913

Question: What about the relative viability (Calu-6; first compound 2 µM) of the same molecule?
Answer: 0.745

Question: And the relative viability (EBC-1; first compound 0.02 µM)?
Answer: 0.199

Question: What about the relative viability (EBC-1; first compound 0.2 µM) of the same molecule?
Answer: 0.23

Question: What about the relative viability (EBC-1; first compound 0.6325 µM) of the same molecule?
Answer: 0.197

Question: And the relative viability (EBC-1; first compound 2 µM)?
Answer: 0.212

Question: And the relative viability (IA-LM; first compound 0.02 µM)?
Answer: 0.803

Question: And the relative viability (IA-LM; first compound 0.2 µM)?
Answer: 0.799

Question: And the relative viability (IA-LM; first compound 0.6325 µM)?
Answer: 1.19

Question: What about the relative viability (IA-LM; first compound 2 µM) of the same molecule?
Answer: 0.799

Question: What about the relative viability (LCLC-97TM1; first compound 0.02 µM) of the same molecule?
Answer: 1.34

Question: What about the relative viability (LCLC-97TM1; first compound 0.2 µM) of the same molecule?
Answer: 0.771

Question: What about the relative viability (LCLC-97TM1; first compound 0.6325 µM) of the same molecule?
Answer: 0.861

Question: And the relative viability (LCLC-97TM1; first compound 2 µM)?
Answer: 0.401

Question: What about the relative viability (NCI-H1299; first compound 0.02 µM) of the same molecule?
Answer: 0.982

Question: And the relative viability (NCI-H1299; first compound 0.2 µM)?
Answer: 1.02

Question: And the relative viability (NCI-H1299; first compound 0.6325 µM)?
Answer: 1

Question: And the relative viability (NCI-H1299; first compound 2 µM)?
Answer: 0.941

Question: And the relative viability (NCI-H1355; first compound 0.02 µM)?
Answer: 1.05

Question: And the relative viability (NCI-H1355; first compound 0.2 µM)?
Answer: 0.956

Question: What about the relative viability (NCI-H1355; first compound 0.6325 µM) of the same molecule?
Answer: 1.18

Question: What about the relative viability (NCI-H1355; first compound 2 µM) of the same molecule?
Answer: 0.894

Question: And the relative viability (NCI-H1437; first compound 0.02 µM)?
Answer: 0.884

Question: And the relative viability (NCI-H1437; first compound 0.2 µM)?
Answer: 0.841

Question: What about the relative viability (NCI-H1437; first compound 0.6325 µM) of the same molecule?
Answer: 0.783

Question: And the relative viability (NCI-H1437; first compound 2 µM)?
Answer: 0.757

Question: What about the relative viability (NCI-H1703; first compound 0.02 µM) of the same molecule?
Answer: 0.873

Question: And the relative viability (NCI-H1703; first compound 0.2 µM)?
Answer: 1.02

Question: What about the relative viability (NCI-H1703; first compound 0.6325 µM) of the same molecule?
Answer: 0.376

Question: What about the relative viability (NCI-H1703; first compound 2 µM) of the same molecule?
Answer: 0.283

Question: What about the relative viability (NCI-H596; first compound 0.02 µM) of the same molecule?
Answer: 1.02

Question: And the relative viability (NCI-H596; first compound 0.2 µM)?
Answer: 1.03

Question: What about the relative viability (NCI-H596; first compound 0.6325 µM) of the same molecule?
Answer: 0.994

Question: And the relative viability (NCI-H596; first compound 2 µM)?
Answer: 0.796
